Test results from EP4722209A1 (Beijing Shenogen Pharma Group, priority 2023, dated 2024).

Biological target: T1, ERα (Homo sapiens, UniProt P03372)
T1 construct: host or cells: MCF-7
T1 sequence (P03372 1-595): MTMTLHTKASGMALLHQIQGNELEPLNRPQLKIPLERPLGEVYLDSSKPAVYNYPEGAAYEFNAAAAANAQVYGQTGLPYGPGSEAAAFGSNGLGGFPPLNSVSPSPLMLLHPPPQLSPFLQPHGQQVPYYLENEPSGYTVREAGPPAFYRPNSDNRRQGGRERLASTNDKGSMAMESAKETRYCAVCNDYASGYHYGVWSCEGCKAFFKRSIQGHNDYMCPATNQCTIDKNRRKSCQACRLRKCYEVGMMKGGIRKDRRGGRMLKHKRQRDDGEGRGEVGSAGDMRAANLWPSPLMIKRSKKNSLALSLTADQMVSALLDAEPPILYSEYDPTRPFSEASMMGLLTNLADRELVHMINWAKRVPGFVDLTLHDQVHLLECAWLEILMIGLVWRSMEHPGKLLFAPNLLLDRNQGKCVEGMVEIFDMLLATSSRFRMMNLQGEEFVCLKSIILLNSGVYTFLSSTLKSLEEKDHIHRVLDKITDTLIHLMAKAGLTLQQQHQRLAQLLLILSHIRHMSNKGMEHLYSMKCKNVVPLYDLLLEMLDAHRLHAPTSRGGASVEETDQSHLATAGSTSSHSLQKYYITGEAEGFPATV
Test: ER degradation activity in MCF-7 cells (Western blot, grayscale intensity)
Assay type: cell-based
Details: 6 hours treatment, 1 nM to 100 nM, concentration required to degrade 50% of the target protein
Method: ERα-positive human breast cancer cells MCF-7 (ATCC, HTB-22) were cultured with EMEM medium (ATCC, catalog number 30-2003) containing 10% fetal bovine serum (Thermo Fisher, catalog number 10099141) and 10 µg/mL bovine insulin in 25 cm^2 or 75 cm^2 plastic tissue culture flasks in a 37 °C incubator with 5% CO2. The cells were passaged 2 to 3 times per week. MCF-7 cells were seeded in 6-well plate at 1×10^6 cells/well with 1.8 mL culture medium per well, and cultured in a 37 °C incubator with 95% air and 5% CO2. After 24 hours, the test compounds were added: the compounds were serially diluted 10-fold in DMSO starting from 10 mM (dissolved in DMSO) to prepare gradient stock solutions. A complete culture medium containing 1% DMSO was prepared for further dilution, temporarily named as the "dilution buffer." Working solutions were prepared by diluting each stock solution with 99 times the volume of dilution buffer, that is, by adding 1 µL of the 10 mM stock solution to 99 µL of the dilution buffer and mixing thoroughly.
Finally, […] of the working solution was added to the cell-seeded culture plate. The final concentration of DMSO in the cell culture medium was 0.2%, and the final concentration of the test compounds ranged from 1 nM to 100 nM. The cells were then incubated at 37 °C for 6 hours.
The culture medium was removed, and the cells were washed twice with ice cold PBS. 1 mL of PBS was added to each well, and the cells were collected into EP tubes using a cell scraper, and centrifuged at 4 °C, 4000 rpm for 5 minutes. PBS was aspirated. Total protein was extracted using the Minute™ Mammalian Tissue/Cell Total Protein Extraction Reagent. The protein concentration was measured using the BCA protein assay kit. 30 µg of protein was taken and mixed with 5× SDS-PAGE loading buffer, boiled for 10 minutes, and cooled. The samples were loaded into wells of a precast gel, with constant voltage at 80 V for 30 minutes, and then the voltage was changed to 120 V after the samples entered the resolving gel. The "sandwich" (sponge - filter paper - gel - membrane - filter paper - sponge) was assembled for Bio-Rad's Transblot. Transfer was performed for 1 hour at 0.3 amp at 4 °C. The sample was blocked with 5% fat-free milk for 1 hour, and incubated with Estrogen Receptor alpha Antibody (Thermo Fisher, catalog number MA5-14104) overnight at 4 °C. The membrane was washed with TBST to remove non-specifically bound antibodies, and then incubated with goat anti-mouse IgG-HRP secondary antibody for 1 hour at room temperature, and was visualized using ECL. The protein degradation level was calculated by measuring the grayscale intensity.
The DC50 values (i.e., the concentration of the test compounds required to degrade 50% of the target protein) were calculated and shown in Table 1. A corresponds to a DC50 value below 10 nM, B corresponds to a DC50 value greater than 10 nM and less than 100 nM, and C corresponds to DC50 values greater than 100 nM. Table 1. The DC50 values of exemplary compounds in MCF-7 cells

Going from `CC1(C)CC(=C(c2ccc(N3CCN(C4CN(c5ccc6c(c5)C(=O)N(C5CCC(=O)NC5=O)C6=O)C4)CC3)nc2)c2ccc3[nH]nc(F)c3c2)CC(C)(C)O1` (stereo not shown) [Compound 106] to `CC1(C)CC(=C(c2ccc(N3CCN(C4CCN(c5ccc6c(c5)C(=O)N(C5CCC(=O)NC5=O)C6=O)CC4)CC3)nc2)c2ccc3[nH]nc(F)c3c2)CC(C)(C)O1` (stereo not shown) [Compound 105], the DC50 falls from greater than 0.1 µM to less than 0.01 µM.

`CC1(C)CC(=C(c2ccc(N3CCC(CN4CCN(c5ccc(NC6CCC(=O)NC6=O)c(F)c5)CC4)CC3)cc2)c2ccc3[nH]nc(F)c3c2)CC(C)(C)O1` (stereo not shown) [Compound 115] and `CC1(C)CC(=C(c2ccc(N3CCC(CN4CCN(c5ccc(NC6CCC(=O)NC6=O)cc5)CC4)CC3)cc2)c2ccc3[nH]nc(F)c3c2)CC(C)(C)O1` (stereo not shown) [Compound 87] cannot be ordered by DC50: greater than 0.1 µM for the first, greater than 0.1 µM for the second.

First: CC1(C)CC(=C(c2ccc(N3CCC4(CC3)CN(C(=O)CN3Cc5cc6c(cc5C3)C(=O)N(C3CCC(=O)NC3=O)C6)C4)nc2)c2ccc3[nH]nc(F)c3c2)CC(C)(C)O1 (stereo not shown) [Compound 70]
Second: CC1(C)CC(=C(c2ccc(N3CCC4(CC3)CC(N3CC5(CN(c6ccc7c(c6)CN(C6CCC(=O)NC6=O)C7=O)C5)C3)C4)nc2)c2ccc3[nH]nc(F)c3c2)CC(C)(C)O1 (stereo not shown) [Compound 43]
The DC50 of the first is lower: 0.01 to 0.1 µM for the first, greater than 0.1 µM for the second.

`CC1(C)CC(=C(c2ccc3[nH]nc(F)c3c2)c2c(F)cc(N3CC(N4CCN(c5ccc6c(c5)C(=O)N(C5CCC(=O)NC5=O)C6=O)CC4)C3)cc2F)CC(C)(C)O1` (stereo not shown) [Compound 29] and `CC1(C)CC(=C(c2ccc3[nH]nc(F)c3c2)c2c(F)cc(N3CCN(C4CN(c5ccc6c(c5)C(=O)N(C5CCC(=O)NC5=O)C6=O)C4)CC3)cc2F)CC(C)(C)O1` (stereo not shown) [Compound 3] cannot be ordered by DC50: greater than 0.1 µM for the first, greater than 0.1 µM for the second.

Compared with `Cn1nc(N2CCC(=O)NC2=O)c2cc(F)c(N3CCN(CC4CCN(c5ccc(C(=C6CC(C)(C)OC(C)(C)C6)c6ccc7[nH]nc(F)c7c6)cn5)CC4)CC3)cc21` [Compound 124], `Cn1nc(N2CCC(=O)NC2=O)c2cc(F)c(N3CCN(C4CC5(CCN(c6ccc(C(=C7CC(C)(C)OC(C)(C)C7)c7ccc8[nH]nc(F)c8c7)cn6)CC5)C4)CC3)cc21` [Compound 125] is lower in DC50: 0.01 to 0.1 µM for the first, less than 0.01 µM for the second.

Compared with `CC1(C)CC(=C(c2ccc(N3CC(CN4CCN(c5ccc6c(c5)C(=O)N(C5CCC(=O)NC5=O)C6=O)CC4)C3)nc2)c2ccc3[nH]nc(F)c3c2)CC(C)(C)O1` (stereo not shown) [Compound 27], `CC1(C)CC(=C(c2ccc(OC3CN(CC4CCN(c5ccc6c(c5)C(=O)N(C5CCC(=O)NC5=O)C6=O)CC4)C3)cc2)c2ccc3[nH]nc(F)c3c2)CC(C)(C)O1` (stereo not shown) [Compound 8] is higher in DC50: 0.01 to 0.1 µM for the first, greater than 0.1 µM for the second.

Compared with `CC1(C)CC(=C(c2ccc(N3CCC(CNC4CN(c5ccc6c(c5)CN(C5CCC(=O)NC5=O)C6=O)C4)CC3)nc2)c2ccc3[nH]nc(F)c3c2)CC(C)(C)O1` (stereo not shown) [Compound 57], `CC1(C)CC(=C(c2ccc(N3CCN(C(=O)C4CCN(c5ccc6c(c5)CN(C5CCC(=O)NC5=O)C6=O)CC4)CC3)nc2)c2ccc3[nH]nc(F)c3c2)CC(C)(C)O1` (stereo not shown) [Compound 65] is higher in DC50: less than 0.01 µM for the first, greater than 0.1 µM for the second.

`CC1(C)CC(=C(c2ccc(OC3CCN(C4CCN(c5ccc6c(c5)CN(C5CCC(=O)NC5=O)C6=O)CC4)CC3)nc2)c2ccc3[nH]nc(F)c3c2)CC(C)(C)O1` (stereo not shown) [Compound 60] and `CC1(C)CC(=C(c2ccc(N3CCC4(CC3)CC(N3CCN(c5ccc6c(c5)CN(C5CCC(=O)NC5=O)C6=O)CC3)C4)cc2)c2ccc3[nH]nc(F)c3c2)CC(C)(C)O1` (stereo not shown) [Compound 62] cannot be ordered by DC50: greater than 0.1 µM for the first, greater than 0.1 µM for the second.

First: CC1(C)CC(=C(c2ccc(N3CCC(CN4CCN(c5ccc6c(c5)C(=O)N([C@H]5CCC(=O)NC5=O)C6=O)CC4)CC3)cc2)c2ccc3[nH]ncc3c2)CC(C)(C)O1 [Compound 131]
Second: CC1(C)CC(=C(c2ccc(N3CCN(C4CN(c5ccc(N6CCC(=O)NC6=O)cc5)C4)CC3)cc2)c2ccc3[nH]nc(F)c3c2)CC(C)(C)O1 [Compound 82]
The DC50 of the first is lower: less than 0.01 µM for the first, greater than 0.1 µM for the second.

For `CC1(C)CC(=C(c2ccc(N3CCC4(CC3)CC(N3CCN(c5ccc(C(=O)N[C@H]6CCC(=O)NC6=O)cc5)CC3)C4)nc2)c2ccc3[nH]nc(F)c3c2)CC(C)(C)O1` [Compound 127], the DC50 was less than 0.01 µM.
